A melting point compilation (Tetko et al.)

| SMILES | melting point [°C] |
| --- | --- |
| CN(CC(=O)Nc1ccccc1Cl)C(=O)CCl | 115 to 117 |
| Clc1ccc2oc(C3CCNCC3)nc2c1 | 86 to 88 |
| COc1ccc(C(=O)c2ccccc2Cl)c(OC)c1 | 61 to 63 |
| NC(=O)c1cc(CCO)c(C(F)(F)F)[nH]c1=O | 230 to 232 |
| NC(=S)c1ccn[nH]1 | 183 to 185 |
| O=S(=O)(NC1CCCC1)c1ccc(Cl)nc1 | 97 to 99 |
| Clc1ccc2c(c1)NCCCS2 | 51 to 53 |
| NCc1cnn(-c2ccc(F)cc2F)c1 | 49 to 51 |
| CCOC(=O)/C(C#N)=C\Nc1cc(F)cc(F)c1 | 174 to 176 |
| O=C(O)c1cc(S(=O)(=O)N2CCCC2)ccc1Cl | 194 to 196 |
| CCS(=O)(=O)c1ccc(CCC(=O)O)cc1 | 119 to 121 |
| CC(=O)c1cnn(-c2ccc(C#N)cc2)c1C | 152 to 154 |
| O=Cc1cn(Cc2ccccc2)nc1-c1ccccc1 | 85 to 87 |
| O=C(O)c1ccc(NCCO)cc1 | 196 to 198 |
| COC(=O)c1cc(-c2cccs2)ccc1N | 89 to 91 |
| CCS(=O)(=O)Nc1ccc(C(=O)O)cn1 | 236 to 238 |
| NC(=S)N1CCCCCC1 | 151 to 153 |
| CC(C)Cn1cnc2c1c(=O)[nH]c(=O)n2CC(C)C | 158 to 160 |
| CC(C)(C)c1cc([N+](=O)[O-])c(O)c(C(C)(C)C)c1 | 58 to 60 |
| O=C(O)c1ccc(Oc2ccccc2Cl)cc1 | 144 to 146 |
| O=C(O)Cc1csc(-c2cccc(Br)c2)n1 | 106 to 110 |
| N#CCC(=O)c1ccc(C(F)(F)F)cc1 | 48 to 50 |
| O=C(c1ccc(F)cc1)c1ccccc1Cl | 61 to 63 |

| SMILES | melting point [°C] |
| --- | --- |
| CCOC(=O)c1c[nH]n2c1nc(=O)c1ccccc12 | 201 to 203 |
| N#CCc1c[nH]c2ncccc12 | 139 to 141 |
| Cc1cccc2c(CC(=O)O)c(-c3ccccc3)[nH]c12 | 159 to 161 |
| O=C1NC(=O)C2(CN3CCC2CC3)N1 (configuration not stated) | 298 to 300 |
| CC(=O)OCc1ccc(Cl)cc1C#N | 54 to 56 |
| C=CCN1C(=O)c2ccc(C(=O)O)cc2C1=O | 154 to 156 |
| O=C(O)c1cc2c([nH]1)CCC2 | 109 to 111 |
| COc1ccc(C(=O)c2ccccc2Cl)cc1 | 77 to 79 |
| COC(=O)c1ccc2c(=O)[nH]c(CCl)nc2c1 | 210 to 212 |
| O=C(CCl)NCCc1cccs1 | < 17 |
| COc1ccccc1Nc1nc2sc(C(=O)O)cc2s1 | 235 to 237 |
| NCC1CC(O)CN1Cc1ccccc1 (configuration not stated) | 54 to 56 |
| COc1ccc(CNC(=O)C(C)Cl)cc1OC (configuration not stated) | 97 to 99 |
| COc1ccc2cc(/C=C/C(=O)O)ccc2c1 | 183 to 195 |
| N#Cc1c[nH]c(C(=O)O)c1 | 256 to 258 |
| Cc1ccc(C2(C(=O)O)CCOCC2)cc1 | 189 to 191 |
| O=S(=O)(NC1CC1)c1ccc(Cl)nc1 | 94 to 96 |
| O=C(O)c1csc(-c2ccsc2)n1 | 165 to 167 |
| CCN(C(=O)CCl)c1nc2ccccc2s1 | 233 to 235 |
| Cc1cc(NC(N)=O)ccc1Br | 185 to 187 |
| O=C(O)c1ccccc1C(=O)N1CCCCC1 | 109 to 111 |
| Cc1c(C(=O)O)ccc2cnc(C3CC3)n12 | 204 to 206 |

Now from value to compound:

| melting point [°C] | SMILES |
| --- | --- |
| 347 to 349 | O=C(O)c1cc(-c2ccccc2)nc2nc(N3CCCCC3)sc12 |
| 116 to 118 | CC(=O)c1nnn(-c2cccc3ncccc23)c1C |
| 264 to 266 | CC(=O)c1ccc2[nH]c(=O)[nH]c2c1 |
| 141 to 143 | O=C(O)C1Cc2ccccc2CN1C(=O)c1ccccc1 (configuration not stated) |
| 166 to 168 | CC(NC(=O)c1ccoc1)C(=O)O (configuration not stated) |
| 244 to 246 | Cc1sc2ncnc(NCC(=O)O)c2c1C |
| 73 to 75 | CCNS(=O)(=O)c1ccc(Cl)nc1 |
| 79 to 81 | N#CCOc1ccccc1C=O |
| 127 to 129 | CCOC(=O)CN1C(=O)C(=O)c2ccccc21 |
| 131 to 133 | CC(C)(C)c1cnc(S)o1 |
| 47 to 49 | CCC(=O)c1ccc(Cl)s1 |
| 155 to 157 | N#Cc1c(OCCCO)n[nH]c1N |
| 63 to 65 | OC(CC1CCCN1)c1cccs1 (configuration not stated) |
| 45 to 47 | Cc1nc(-c2cccc(NC(=O)CCl)c2)cs1 |
| 313 to 315 | NC(=O)Cn1c(S)nnc1-c1ccco1 |
| 206 to 208 | O=C1c2ccccc2C(=O)N1CC(O)CN1C(=O)c2ccccc2C1=O |
| 95 to 97 | CCSc1cccc(C(=O)O)c1 |
| 223 to 226 | CCN(CC)S(=O)(=O)c1ccc(OC(C)C)c(NC(=O)CCl)c1 |
| 80 to 84 | N#Cc1cc(C=O)ccc1F |
| 143 to 145 | Cc1occc1C(=O)NCC(=O)O |
| 188 to 190 | CN1C(=O)CC(C(N)=O)C1c1cccc(Cl)c1 (configuration not stated) |
| 163 to 165 | O=Cc1cn2cccc(F)c2n1 |
| 50 to 52 | COC(=O)c1cc(Cl)cc(S(=O)(=O)Cl)c1 |
| 180 to 182 | CC(=O)c1ccc(S(=O)(=O)NC(CC(N)=O)C(=O)O)cc1 (configuration not stated) |
| 227 to 229 | Cc1c(C(=O)O)oc2c1C(=O)CCC2 |
| 198 to 202 | CCCc1nnc(N)s1 |
| 108 to 110 | Cc1csc(-c2cccc(O)c2)n1 |
